# Experimental data from patent US5648244A, “Production, purification, cleavage and use of fusion peptides” (President and Fellows of Harvard College, priority 1993, dated 1997).
# System: yeast MATa/sst1Δ strain EY957
# Assay: Yeast cell arrest (halo) assay
# Assay type: cell-based
# Text: The mature wild-type α-Factor peptide is a 13 amino acid pheromone secreted by type […] yeast cells, which upon binding to the α-Factor receptor transmits a signal to an internally located G-protein. Once activated, this G protein triggers a series of intracellular events which lead to cellular differentiation (Elion et al., Cell, 60:649-664 (1990)). In the presence of external α-Factor, yeast cells in the early G1 phase of growth will undergo cell cycle arrest. The bioactivity of each recombinant α-Factor could easily be determined in halo assays as a region of low cell density surrounding a central disk spotted with α-Factor (FIG. 5).
# Lawns of yeast MATa/sst1Δ strain EY957 were grown on YPD plates and were tested for α-Factor sensitivity as previously described (Elion et al., Cell, 60:649-664 (1990)). α-Factor peptides were dissolved in DMSO and spotted on sterile 6.5 mm paper disks. Peptide amounts were as follows: Wild-type α-Factor (αFWT)-595 pmoles; αI13-homoserine-lactone (αI13-HSl)-6,850 pmoles; αI13-homoserine (αI13-HS)-1,130 pmoles; αI13-homoserine-amide (αI13-HSA)-2,820 pmoles. The zones of inhibition (z.o.i.) for each peptide is the diameter of the low cell density region. […]
# ^c The zone of inhibition in mm (z.o.i.) was measured for each series […]
sequence,measurement,setting,value
"WHWLQLKPGQPMY [αFWT, Wild-type α-factor from Sigma, 13 amino acid yeast pheromone, reference compound]",CA50 (cell arrest50),amount of peptide per disk required to cause 50% of cell arrest,74 ± 5 pmol
same,z.o.i.int (y-intercept of upper asymptote of zone of inhibition curve),"relative maximal effect, z.o.i. vs pmoles spotted per 6.5 mm disk",29 mm
